Measurements reported in patent US9181182B2, “S1P receptors modulators” (Akaal Pharma PTY LTD, priority 2008, dated 2015).

Key:
[1] = tested on: Human promyelocytic leukemia (HL-60) cells; assay: Cell viability (growth inhibition) assay, MTS; type: cell-based; conditions: 50% reduction in cell viability of HL-60 cells, 48 hr incubation
Method: In order to measure the apoptotic effect of compounds on the metabolic activity of viable cells, the following assay was performed on Human promyelocytic leukemia cells. The assay utilises the tetrazolium compound (3-(4,5-dimethylthiazol-2-yl)-5-(3-carboxymethoxyphenyl)-2-(4-sulfophenyl)-2H-tetrazolium, inner salt; (MTS) and an electron coupling reagent (phenazine methosulfate; (PMS). MTS is bioreduced by cells into a formazan product the optical absorbance of which is measured directly from 96 well assay plates. The conversion of MTS into aqueous, soluble formazan is accomplished by dehydrogenase enzymes found in metabolically active cells. The quantity of formazan product as measured by the amount of 490 nm absorbance is directly proportional to the number of living cells in culture.
The assay was based on the National Cancer Institute (NCI) protocol, briefly, cells were grown in RPMI 1640 media supplemented with 10% FCS (foetal calf serum) and kept at 37° C. in a humidified environment with 5% CO2.
For the growth inhibition assay, Human promyelocytic leukemia (HL-60) cells were seeded at a density of 10,000 cells per well in 96 well plates in a volume of 100 μl and allowed to grow for 24 h. Compounds were serially diluted in DMSO at concentrations 100 fold higher than used in the assay (100×). Compounds were freshly prepared for each experiment. The 100× stocks were then diluted to 2× stocks into media and immediately, 100 μl of this 2× stock was added to the cells to create the desired final concentration of drug with a DMSO concentration of 1%. One row of each 96 well plate was treated with DMSO alone as a control. Cells were then incubated for a further 48 hr. Metabolic activity was determined using MTS (Promega) (90% 1.6 mg/ml MTS, 10% 1.6 mg/ml PMS (phenazine methosulfate) made fresh in PBS). 50 μl of this mix was added to all wells of the plates and allowed to incubate for 1.5-2 hr. Plates were shaken gently for about 15 min and absorbance was read on a plate reader at 490 nm. Averages were taken of the readings at each point with standard deviation and plotted using MicroCal Origin.

S1P1 human receptor = S1P1 human receptor (Homo sapiens (Human), UniProt P21453); assay: S1P1 [35S]-GTPgamaS binding assay (agonist activity); type: biochemical; conditions: for EC50: GTPgamaS binding, agonist; for Efficacy (% of maximum): S1P1, relative to reference agonist S1P; for EC50S1P1/EC50S1P: potency at S1P1 relative to S1P
Method: Selected Compounds of the Examples were evaluated at Millipore Corporation, USA, using S1P1 receptor; [^35S]-GTPgamaS binding assay. A [^35S]-GTPgamaS binding assay at Millipore was conducted by GPCR Profiler™ Custom Service Laboratory, Temecula, Calif., Millipore, Inc. to monitor dose-dependent agonist selectivity for selected Examples against the S1P1 receptors. The assay was completed with sample compounds subjected to an eight-point, four-fold dose response curve with starting concentration of 10 μM. Selectivity was determined upon initial addition of compounds followed by a 30 minute incubation at 30° C. Following compound incubation, bounded [^35S]-GTPgamaS was determined by filtration and scintillation counting.
(§1) Independently, selected compounds were evaluated for S1P1 and S1P3 agonistic activity. The S1P1 assay system was GTPgama-S35 binding in membranes from CHO K1 cells, expressing S1P1 human receptor. The S1P3 assay system was calcium mobilization in CHO K1 cells expressing S1P3 human receptor. […] Compounds were tested initially at a concentration of 10 μM.

S1P3 human receptor = S1P3 human receptor (Homo sapiens (Human), UniProt Q99500); assay: S1P3 calcium mobilization in CHO K1 cells; type: cell-based; conditions: NA = Not Active
Method: as §1

female BALB/c mice = assay: Lymphopenia assay; type: in vivo
Method: The study was performed to determine the ability of the compounds of the invention to induce lymphopenia in female BALB/c mice. On day 0, 27 female BALB/c mice were randomised based on body weight into nine groups of three mice each. Animals received a single i.p. administration of Test compounds and blood was collected by cardiac puncture either 6 or 24 h after administration. […] Changes to other haematological parameters were not observed.

[2] = 3 mg/kg and 30 mg/kg single i.p., 6 and 24 h, compared to untreated animals

Chain of S1P3 human receptor (Q99500 whole entry): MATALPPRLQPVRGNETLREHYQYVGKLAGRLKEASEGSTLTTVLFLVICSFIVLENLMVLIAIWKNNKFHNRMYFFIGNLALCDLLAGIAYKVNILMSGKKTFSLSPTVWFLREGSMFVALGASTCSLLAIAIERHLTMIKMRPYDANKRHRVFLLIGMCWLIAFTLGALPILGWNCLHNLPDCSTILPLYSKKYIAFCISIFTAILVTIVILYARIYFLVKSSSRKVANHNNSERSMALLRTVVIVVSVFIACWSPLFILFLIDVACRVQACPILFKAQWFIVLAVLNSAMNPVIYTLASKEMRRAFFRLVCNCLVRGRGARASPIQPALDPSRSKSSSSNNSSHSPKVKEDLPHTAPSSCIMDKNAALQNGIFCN
Chain of S1P1 human receptor (P21453 whole entry): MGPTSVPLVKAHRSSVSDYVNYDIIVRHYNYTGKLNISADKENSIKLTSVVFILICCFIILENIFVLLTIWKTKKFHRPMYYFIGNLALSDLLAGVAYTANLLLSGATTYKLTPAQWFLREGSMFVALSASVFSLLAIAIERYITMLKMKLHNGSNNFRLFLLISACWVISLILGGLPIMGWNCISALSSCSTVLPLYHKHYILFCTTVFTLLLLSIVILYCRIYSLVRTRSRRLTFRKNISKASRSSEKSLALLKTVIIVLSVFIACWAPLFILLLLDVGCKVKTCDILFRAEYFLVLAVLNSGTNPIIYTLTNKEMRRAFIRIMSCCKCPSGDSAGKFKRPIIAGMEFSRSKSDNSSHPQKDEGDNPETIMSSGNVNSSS

SMILES	IC50 ([1]; Homo sapiens) [µM]	EC50 (S1P1 human receptor) [µM]	Efficacy (% of maximum) (S1P1 human receptor) [%]	EC50S1P1/EC50S1P (S1P1 human receptor)	EC50 (S1P3 human receptor) [µM]	Changes to other haematological parameters (female BALB/c mice; single i.p., 6 or 24 h)	IC50 [1] [µM]	lymphocyte counts (female BALB/c mice; [2])	total white blood cell counts (female BALB/c mice; [2])
NC(CO)(CO)CN1CCc2c(-c3noc(-c4ccc(-c5ccccc5C(F)(F)F)cc4)n3)cccc21 [Example 36, 2-Amino-2-((4-(5-(2′-(trifluoromethyl)biphenyl-4-yl)-1,2,4-oxadiazol-3-yl)indolin-1-yl)methyl)propane-1,3-diol]	1.31 ± 0.35	0.501	99	65	–	–	–	–	–
CCOc1ccc(-c2nc(-c3ccc4c(c3)CCN4CC(N)(CO)CO)no2)cc1OCC [Example 40, 2-Amino-2-((5-(5-(3,4-diethoxyphenyl)-1,2,4-oxadiazol-3-yl)indolin-1-yl)methyl)propane-1,3-diol]	3.1	0.344	117	36.41	> 15.6	–	–	–	–
Cc1cc2cc(-c3nc(-c4cccc5c4CCN5CC(N)(CO)CO)no3)ccc2o1 [Example 42, 2-Amino-2-((4-(5-(2-methylbenzofuran-5-yl)-1,2,4-oxadiazol-3-yl)indolin-1-yl)methyl)propane-1,3-diol]	1.7 ± 0.1	1.42	92	117.8	–	–	–	–	–
CCCOc1ccc(-c2nc(-c3cccc4c3CCN4CC(N)(CO)CO)no2)cc1OCCC [Example 43, 2-Amino-2-((4-(5-(3,4-di-propoxyphenyl)-1,2,4-oxadiazol-3-yl)indolin-1-yl)methyl)propane-1,3-diol]	–	0.018	89	2.22	3.1	–	–	–	–
CCOc1ccc(-c2nc(-c3cccc4c3ccn4CC(N)(CO)CO)no2)cc1Cl [Example 49, 2-Amino-2-((4-(5-(3-chloro-4-ethoxyphenyl)-1,2,4-oxadiazol-3-yl)-1H-indol-1-yl)methyl)propane-1,3-diol]	10.2	0.114	112	9.26	–	–	–	–	–
NC(CO)(CO)CN1CCc2c(-c3noc(C45CC6CC(CC(C6)C4)C5)n3)cccc21 [Example 57, 2-Amino-2-((4-(5-(1-adamantyl)-1,2,4-oxadiazol-3-yl)indolin-1-yl)methyl) propane-1,3-diol]	1	–	82	268.44	–	–	–	–	–
CCOc1ccc(-c2nc(-c3ccc(C4=CCN(CC(N)(CO)CO)CC4)cc3)no2)cc1OCC [Example 58, 2-Amino-2-((4-(4-(5-(3,4-diethoxyphenyl)-1,2,4-oxadiazol-3-yl)phenyl)-5,6-dihydropyridin-1(2H)-yl)methyl)propane-1,3-diol]	1.7	> 2.06	60	150	–	–	–	–	–
CCCCCCCCOc1ccc(CCC(N)(CO)CO)cc1C12CC3CC(CC(C3)C1)C2.Cl [Example 63, 2-Amino-2-(3-(1-admantyl)-4-(octyloxy)phenethyl)propane-1,3-diol hydrochloride salt]	–	> 40	–	3188.66	–	–	2.4 ± 0.62	–	–
CCCCCCCCc1ccc(CCC(N)(CO)CO)cc1 [FTY 720, 2-amino-2-(2-[4-octylphenyl]ethyl)-1,3-propanediol, reference compound]	3.34 ± 0.19	–	99	–	–	–	–	–	–

Continued by falling EC50 (S1P1 human receptor), values first:

IC50 ([1]; Homo sapiens) [µM]	EC50 (S1P1 human receptor) [µM]	Efficacy (% of maximum) (S1P1 human receptor) [%]	EC50S1P1/EC50S1P (S1P1 human receptor)	EC50 (S1P3 human receptor) [µM]	Changes to other haematological parameters (female BALB/c mice; single i.p., 6 or 24 h)	IC50 [1] [µM]	SMILES	lymphocyte counts (female BALB/c mice; [2])	total white blood cell counts (female BALB/c mice; [2])
3 ± 0.17	0.0179	87	1.3	–	–	–	CCCOc1ccc(-c2nc(-c3cccc4c3CCN4CC(N)(CO)CO)no2)cc1Cl [Example 50, 2-Amino-2-((4-(5-(3-chloro-4-propoxyphenyl)-1,2,4-oxadiazol-3-yl)indolin-1-yl)methyl)propane-1,3-diol]	–	–
–	0.0074	97	0.16	0.39	–	–	CCOc1ccc(-c2nc(-c3ccc4c(c3)CN(CC(N)(CO)CO)C4)no2)cc1OCC [Example 65, 2-Amino-2-((5-(5-(3,4-diethoxyphenyl)-1,2,4-oxadiazol-3-yl)isoindolin-2-yl)methyl)propane-1,3-diol]	–	–
1.82 ± 0.5	0.0068	92	0.4	1.29	not observed	–	CCOc1ccc(-c2nc(-c3cccc4c3CCN4CC(N)(CO)CO)no2)cc1OCC [Example 34, 2-Amino-2-((4-(5-(3,4-diethoxyphenyl)-1,2,4-oxadiazol-3-yl)indolin-1-yl)methyl)propane-1,3-diol]	decrease	decrease
–	0.0024	94	0.33	0.965	–	–	CCCc1ccc(-c2nc(-c3cccc4c3CCN4CC(N)(CO)CO)no2)cc1CCC [Example 47, 2-Amino-2-((4-(5-(3,4-dipropylphenyl)-1,2,4-oxadiazol-3-yl)indolin-1-yl)methyl)propane-1,3-diol]	–	–
